pIC50: −log10 of the molar value.
These compounds were tested against human P2X3 receptor (Homo sapiens (Human), UniProt P56373) (assay: P2X3 receptor inhibition, ATP-evoked Fluo-3 calcium fluorescence (FDSS 3000)). Settings: C6BU-1 cell transfected with human P2X3 receptor gene; ATP-evoked Fluo-3 fluorescence.
Type: cell-based
Method in brief: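 C6BU-1 cells stably transfected with human P2X3, loaded with 4 μM Fluo-3-AM for 1 h at 37 °C in HEPES buffer pH 7.5 with probenecid. Compound added 5 min before 40 nM ATP solution; fluorescence followed 3 min. IC50 from ratio of peak post-ATP to baseline fluorescence.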

Sequence of human P2X3 receptor (P56373 whole entry): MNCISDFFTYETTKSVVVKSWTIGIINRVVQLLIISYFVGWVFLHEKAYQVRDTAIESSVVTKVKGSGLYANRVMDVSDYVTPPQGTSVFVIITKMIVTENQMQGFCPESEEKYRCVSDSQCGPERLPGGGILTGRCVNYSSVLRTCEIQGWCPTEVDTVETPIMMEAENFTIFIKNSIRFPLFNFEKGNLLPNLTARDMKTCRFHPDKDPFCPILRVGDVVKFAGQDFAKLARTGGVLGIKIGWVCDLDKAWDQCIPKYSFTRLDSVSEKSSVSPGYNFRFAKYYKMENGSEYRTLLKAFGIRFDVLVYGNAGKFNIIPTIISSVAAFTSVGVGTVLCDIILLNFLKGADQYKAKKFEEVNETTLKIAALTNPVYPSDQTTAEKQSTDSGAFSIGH

Row | SMILES | pIC50
1 | Cc1ccc(-c2ccc(N3C(=O)C(O)=C(C(=O)CC(C)C)C3c3cccnc3C(=O)NCC#N)cc2)s1 (stereo not drawn) [Compound I-577] | 7.33
2 | Cc1ccc(-c2ccc(N3C(=O)C(O)=C(C(=O)CC(C)C)C3c3cccnc3C(=O)NC(C)C)cc2)s1 (stereo not drawn) [Compound I-578] | 6.41
3 | Cc1ccc(-c2ccc(N3C(=O)C(O)=C(C(=O)CC(C)C)C3c3cccnc3C(=O)N3CCCC3)cc2)s1 (stereo not drawn) [Compound I-579] | 6.37
4 | COCCNC(=O)c1ncccc1C1C(C(=O)CC(C)C)=C(O)C(=O)N1c1ccc(-c2ccc(C)s2)cc1 (stereo not drawn) [Compound I-581] | 6.33
5 | COCCN(C)C(=O)c1ncccc1C1C(C(=O)CC(C)C)=C(O)C(=O)N1c1ccc(-c2ccc(C)s2)cc1 (stereo not drawn) [Compound I-582] | 6.44
6 | Cc1ccc(-c2ccc(N3C(=O)C(O)=C(C(=O)CC(C)C)C3c3cccnc3C(=O)NCCN(C)C)cc2)s1 (stereo not drawn) [Compound I-583] | 8.00
7 | Cc1cc(-c2ccc(N3C(=O)C(O)=C(C(=O)C(C)C)C3c3ccccc3C(=O)N(C)CCO)cc2)cs1 (stereo not drawn) [Compound I-584] | 6.78
8 | Cc1ccc(-c2ccc(N3C(=O)C(O)=C(C(=O)C(C)C)C3c3ccccc3C(=O)N(C)CCO)cc2)o1 (stereo not drawn) [Compound I-585] | 6.80
9 | COCCN(C)C(=O)c1ccccc1C1C(C(=O)C(C)C)=C(O)C(=O)N1c1ccc(-c2ccc(C)o2)cc1 (stereo not drawn) [Compound I-586] | 6.60
10 | C/N=C1/CC(C)(C)C(=O)OC2=C1C(c1ccccc1OC)N(c1ccc(-c3ccsc3)cc1)C2=O (stereo not drawn) [Compound I-587] | 6.43
11 | CC(C)C(=O)C1=C(O)C(=O)N(c2ccc(-c3ccon3)cc2)C1c1ccccc1OCC1CC1 (stereo not drawn) [Compound I-588] | 7.54
12 | CSc1ccc(N2C(=O)C(O)=C(C(=O)C(C)C)C2c2ccccc2OCC2CC2)cc1 (stereo not drawn) [Compound I-589] | 7.49
13 | CC(C)C(=O)C1=C(O)C(=O)N(c2ccc(-c3ccon3)cc2)C1c1ccccc1OCC1CCOCC1 (stereo not drawn) [Compound I-590] | 7.55
14 | CSc1ccc(N2C(=O)C(O)=C(C(=O)C(C)C)C2c2ccccc2OCC2CCOCC2)cc1 (stereo not drawn) [Compound I-591] | 7.51
15 | Cc1nc(-c2ccc(N3C(=O)C(O)=C(C(=O)C(C)C)C3c3ccccc3CCC(N)=O)cc2)no1 (stereo not drawn) [Compound I-592] | 6.08
16 | CNC(=O)CCc1ccccc1C1C(C(=O)C(C)C)=C(O)C(=O)N1c1ccc(-c2noc(C)n2)cc1 (stereo not drawn) [Compound I-593] | 6.09
17 | Cc1nc(-c2ccc(N3C(=O)C(O)=C(C(=O)C(C)C)C3c3ccccc3CCC(=O)NC(C)C)cc2)no1 (stereo not drawn) [Compound I-594] | 6.15
18 | Cc1ccc(-c2ccc(N3C(=O)C(O)=C(C(=O)C(C)C)C3c3ccccc3N3CCCC3=O)cc2)s1 (stereo not drawn) [Compound I-597] | 6.18
19 | Cc1cc(-c2ccc(N3C(=O)C(O)=C(C(=O)C(C)C)C3c3ccccc3N3CCCC3=O)cc2)cs1 (stereo not drawn) [Compound I-598] | 6.11
20 | COc1ccccc1C1c2c(C(C)(C)C)n[nH]c2C(=O)N1c1ccc(OC(C)C)cc1 (stereo not drawn) [II-002] | 6.66
21 | COc1ccccc1C1c2c(C(C)(C)C)n[nH]c2C(=O)N1c1ccc(C(C)(C)C)cc1 (stereo not drawn) [II-003] | 6.85
22 | COc1ccccc1C1c2c(C(C)(C)C)n[nH]c2C(=O)N1c1ccc(SC(F)(F)F)cc1 (stereo not drawn) [II-004] | 6.42
23 | COc1ncccc1C1c2c(C(C)(C)C)n[nH]c2C(=O)N1c1ccc(SC)cc1 (stereo not drawn) [II-007] | 7.21
24 | COc1ccccc1C1c2c(C(C)(C)CO)n[nH]c2C(=O)N1c1ccc(SC)cc1 (stereo not drawn) [II-009] | 7.27

Row | SMILES | pIC50
25 | COc1ccccc1C1c2c(C(C)(C)COC(C)=O)n[nH]c2C(=O)N1c1ccc(SC)cc1 (stereo not drawn) [II-010] | 6.87
26 | COc1ccccc1C1c2c(C(C)(C)CO)n[nH]c2C(=O)N1c1ccc(N(C)C)cc1 (stereo not drawn) [II-011] | 6.50
27 | COCCOc1ncccc1C1c2c(C(C)(C)C)n[nH]c2C(=O)N1c1ccc(-c2ccsc2)cc1 (stereo not drawn) [II-032] | 8.22
28 | COCCOc1ncccc1C1c2c(C(C)(C)C)n[nH]c2C(=O)N1c1ccc(SC)cc1 (stereo not drawn) [II-034] | 7.34
29 | COCCOc1ncccc1C1c2c(C(C)(C)C)n[nH]c2C(=O)N1c1ccc(-c2cccs2)cc1 (stereo not drawn) [II-035] | 8.22
30 | COCCOc1ncccc1C1c2c(C(C)(C)C)n[nH]c2C(=O)N1c1ccc(-c2ccoc2)cc1 (stereo not drawn) [II-038] | 7.85
31 | CC(C)(C)c1n[nH]c2c1C(c1cccnc1OCCO)N(c1ccc(-c3ccsc3)cc1)C2=O (stereo not drawn) [II-039] | 8.30
32 | CSc1ccc(N2C(=O)c3[nH]nc(C(C)(C)C)c3C2c2cccnc2OCCO)cc1 (stereo not drawn) [II-040] | 7.15
33 | CC(C)(C)c1n[nH]c2c1C(c1cccnc1OCCO)N(c1ccc(-c3ccoc3)cc1)C2=O (stereo not drawn) [II-041] | 7.57
34 | CC(C)(C)c1n[nH]c2c1C(c1cccnc1OCCO)N(c1ccc(-c3cccs3)cc1)C2=O (stereo not drawn) [II-042] | 8.00
35 | CC(C)(C)c1n[nH]c2c1C(c1cccnc1OCCO)N(c1ccc(-c3ccco3)cc1)C2=O (stereo not drawn) [II-043] | 7.77
36 | CC(C)c1n[nH]c2c1C(c1cccnc1OCCO)N(c1ccc(-c3ccon3)cc1)C2=O (stereo not drawn) [II-044] | 6.24
37 | CC(C)c1n[nH]c2c1C(c1cccnc1OCCO)N(c1ccc(-c3ccsc3)cc1)C2=O (stereo not drawn) [II-045] | 7.80
38 | Cc1nc(-c2ccc(N3C(=O)c4[nH]nc(C(C)C)c4C3c3cccnc3OCCO)cc2)no1 (stereo not drawn) [II-046] | 6.06
39 | CC(C)c1n[nH]c2c1C(c1ccccc1OCC(=O)O)N(c1ccc(-c3ccsc3)cc1)C2=O (stereo not drawn) [II-047] | 7.96
40 | COc1ncccc1C1c2c(C(C)C)n[nH]c2C(=O)N1c1ccc(-c2ccsc2)cc1 (stereo not drawn) [II-048] | 7.24
41 | CNC(=O)COc1ccccc1C1c2c(C(C)C)n[nH]c2C(=O)N1c1ccc(-c2ccsc2)cc1 (stereo not drawn) [II-049] | 7.96
42 | CC(C)c1n[nH]c2c1C(c1ccccc1OCC(N)=O)N(c1ccc(-c3ccsc3)cc1)C2=O (stereo not drawn) [II-050] | 8.15
43 | CC(C)c1n[nH]c2c1C(c1ccccc1OCC(=O)NN)N(c1ccc(-c3ccsc3)cc1)C2=O (stereo not drawn) [II-051] | 8.30
44 | CC(C)c1n[nH]c2c1C(c1cccnc1OCC(=O)O)N(c1ccc(-c3ccsc3)cc1)C2=O (stereo not drawn) [II-052] | 7.48
45 | CNC(=O)COc1ncccc1C1c2c(C(C)C)n[nH]c2C(=O)N1c1ccc(-c2ccsc2)cc1 (stereo not drawn) [II-053] | 7.46
46 | CC(C)c1n[nH]c2c1C(c1cccnc1OCC(N)=O)N(c1ccc(-c3ccsc3)cc1)C2=O (stereo not drawn) [II-054] | 7.59
47 | COc1ccc(-c2n[nH]c3c2C(C2CCCCC2)N(c2ccc4[nH]ccc4c2)C3=O)cc1 (stereo not drawn) [II-055] | 6.26

Now from value to compound:

Row | pIC50 | SMILES
48 | 6.98 | CCCc1ccc(N2C(=O)c3[nH]nc(C(C)(C)C)c3C2c2ccccc2OC)cc1 (stereo not drawn) [II-001]
49 | 6.61 | CC(C)(C)c1n[nH]c2c1C(c1cccc3c1OCO3)N(c1ccc(-c3ccon3)cc1)C2=O (stereo not drawn) [II-006]
50 | 8.40 | CC(C)(C)c1n[nH]c2c1C(c1ccccc1OCCO)N(c1ccc(-c3cccs3)cc1)C2=O (stereo not drawn) [II-012]
51 | 7.72 | CSc1ccc(N2C(=O)c3[nH]nc(C(C)(C)C)c3C2c2ccccc2OCCO)cc1 (stereo not drawn) [II-013]
52 | 7.77 | CC(C)(C)c1n[nH]c2c1C(c1ccccc1OCCO)N(c1ccc(-c3nccs3)cc1)C2=O (stereo not drawn) [II-014]
53 | 7.06 | Cc1cc(-c2ccc(N3C(=O)c4[nH]nc(C(C)(C)C)c4C3c3ccccc3OCCO)cc2)on1 (stereo not drawn) [II-015]
54 | 6.80 | Cc1noc(-c2ccc(N3C(=O)c4[nH]nc(C(C)(C)C)c4C3c3ccccc3OCCO)cc2)n1 (stereo not drawn) [II-016]
55 | 7.27 | Cc1nc(-c2ccc(N3C(=O)c4[nH]nc(C(C)(C)C)c4C3c3ccccc3OCCO)cc2)no1 (stereo not drawn) [II-017]
56 | 7.66 | COCCOc1ccccc1C1c2c(C(C)(C)C)n[nH]c2C(=O)N1c1ccc(-c2ccon2)cc1 (stereo not drawn) [II-018]
57 | 7.68 | CC(C)Oc1ccccc1C1c2c(C(C)(C)C)n[nH]c2C(=O)N1c1ccc(-c2ccon2)cc1 (stereo not drawn) [II-019]
58 | 8.10 | COC(=O)COc1ccccc1C1c2c(C(C)(C)C)n[nH]c2C(=O)N1c1ccc(-c2ccsc2)cc1 (stereo not drawn) [II-020]
59 | 8.05 | COC(=O)COc1ccccc1C1c2c(C(C)(C)C)n[nH]c2C(=O)N1c1ccc(-c2cccs2)cc1 (stereo not drawn) [II-021]
60 | 8.40 | CC(C)(C)c1n[nH]c2c1C(c1ccccc1OCC(=O)O)N(c1ccc(-c3cccs3)cc1)C2=O (stereo not drawn) [II-022]
61 | 8.40 | CC(C)(C)c1n[nH]c2c1C(c1ccccc1OCC(=O)O)N(c1ccc(-c3ccsc3)cc1)C2=O (stereo not drawn) [II-023]
62 | 7.21 | COCCOc1ccccc1C1c2c(C(C)(C)C)n[nH]c2C(=O)N1c1ccc(-c2nc(C)no2)cc1 (stereo not drawn) [II-024]
63 | 7.82 | COCCOc1ccccc1C1c2c(C(C)(C)C)n[nH]c2C(=O)N1c1ccc(-c2noc(C)n2)cc1 (stereo not drawn) [II-025]
64 | 7.64 | COCCOc1ccccc1C1c2c(C(C)(C)C)n[nH]c2C(=O)N1c1ccc(SC)cc1 (stereo not drawn) [II-026]
65 | 8.10 | COCCOc1ccccc1C1c2c(C(C)(C)C)n[nH]c2C(=O)N1c1ccc(-c2ccco2)cc1 (stereo not drawn) [II-027]
66 | 7.85 | COC(=O)COc1ccccc1C1c2c(C(C)(C)C)n[nH]c2C(=O)N1c1ccc(-c2ccon2)cc1 (stereo not drawn) [II-028]
67 | 7.05 | CC(C)(C)c1n[nH]c2c1C(c1ccccc1OCC(=O)O)N(c1ccc(-c3ccon3)cc1)C2=O (stereo not drawn) [II-029]
68 | 6.89 | CN(C)CCOc1ccccc1C1c2c(C(C)(C)C)n[nH]c2C(=O)N1c1ccc(-c2ccon2)cc1 (stereo not drawn) [II-030]
69 | 7.74 | CN(C)CCOc1ccccc1C1c2c(C(C)(C)C)n[nH]c2C(=O)N1c1ccc(-c2ccsc2)cc1 (stereo not drawn) [II-031]
70 | 6.93 | COCCOc1ncccc1C1c2c(C(C)(C)C)n[nH]c2C(=O)N1c1ccc(-c2ccon2)cc1 (stereo not drawn) [II-033]
71 | 6.64 | CC(C)(C)c1n[nH]c2c1C(c1cccnc1OCCO)N(c1ccc(-c3ccon3)cc1)C2=O (stereo not drawn) [II-036]
72 | 8.10 | COCCOc1ncccc1C1c2c(C(C)(C)C)n[nH]c2C(=O)N1c1ccc(-c2ccco2)cc1 (stereo not drawn) [II-037]
73 | 7.77 | CCOC(=O)c1ccc(N2C(=O)c3[nH]nc(C(C)(C)C)c3C2c2ccccc2OC)cc1 (stereo not drawn) [II-057]
74 | 6.31 | CC(C)(C)c1n[nH]c2c1C(c1cccc[n+]1[O-])N(c1ccc(-c3ccon3)cc1)C2=O (stereo not drawn) [II-058]
75 | 7.34 | COc1cc(F)ccc1C1c2c(C(C)(C)C)n[nH]c2C(=O)N1c1ccc(-c2ccon2)cc1 (stereo not drawn) [II-059]
